The record followed here is patent publication US20240238199A1, “STABLE LIQUID PHARMACEUTICAL COMPOSITIONS HAVING HIGH DRUG LOADINGS OF MEDIUM CHAIN TRIGLYCERIDES AND METHODS RELATED THERETO” (CERECIN INC., priority 2021, published 2024).

A short description of data set [1]: Emulsion physical stability (visual / overall assessment). The class given is physicochemical. The settings on record: at pH7. The source says: As described herein, the pharmaceutical compositions of the disclosure may form a stable liquid emulsion at ambient conditions. An emulsion refers to a composition which, when diluted with water or other aqueous medium and gently mixed, yields a stable oil/water emulsion with a mean particle size of less than about 1 μm, but greater than about 100 nm, (i.e., 0.1-1 μm) and which is generally polydisperse. Such an emulsion is stable, meaning there is no visibly detectable phase separation and that there is no visibly detectable crystallization.
Equal mix of Phospholipon 90 G, Kolliphor RH40 and Capmul PG-8 was also very stable. Particle size evolution of Phospholipon 90G, Kolliphor RH40, Capmul PG-8 emulsions prepared via Ultra Turrax emulsification are shown in FIG. 4, and particle size evolution of 10 Phospholipon 90G, Kolliphor RH40, Capmul PG-8 emulsions: prepared via Silverson & High Pressure Homogeniser emulsification are shown in FIG. 5. Visual appearance of Phospholipon 90G, Kolliphor RH40, Capmul PG-8 emulsions under a 1 month stability study are shown in FIG. 6.

A short description of data set [2]: Gamma irradiation: physiochemical testing pre & post treatment. It is filed as physicochemical. The source says:
Gamma irradiation is a commonly accepted method of sterilizing componentry and reducing bio load in natural materials. Exemplary formulations were irradiated at various dosages and then assessed for the impact of irradiation on product performance.

Each structure is given as a SMILES string.

In the case of `CCCCCCCC/C=C\CCCCCCCC(=O)[O-].[Na+]` [Sodium oleate], the “effect on emulsion stability” value in data set [1] is recorded as “slight destabilizing effect”.
With `CCCCCCCC(=O)OCC(COC(=O)CCCCCCC)OC(=O)CCCCCCC` [Tricaprylin], in data set [2] (gamma irradiation 10 kGy), the “Appearance: Complies/fails” value is reported as “Complies”, the “Assay: Complies/fails” value is on record as “Complies”, the “Related substances: Complies/fails” value was “Complies*” and the “Related substances: result after treatment” value (shortened to “Related substances: result”) is listed as “profile changes”. Besides, in data set [2] (gamma irradiation 15 kGy), the “Appearance: Complies/fails” value is “Complies”, the “Assay: Complies/fails” value was “Complies”, the “Related substances: Complies/fails” value was “Complies*” and the “Related substances: result” value is reported as “profile changes”. For the same compound, in data set [2] (gamma irradiation 25 kGy), the “Appearance: Complies/fails” value was “Complies”, the “Assay: Complies/fails” value is listed as “Complies”, the “Related substances: Complies/fails” value was “Complies*” and the “Related substances: result” value was “profile changes”.
